Reference: publication PMC9440615 (Biochemical pharmacology, 2020)
Structures can show the parent of a compound that is named as a salt. Where two headings read alike, the source gives them in different places.

Assays:
hPXR [1] = molecular target: T1, hPXR (Homo sapiens, UniProt O75469)
T1 sequence (O75469 1-434): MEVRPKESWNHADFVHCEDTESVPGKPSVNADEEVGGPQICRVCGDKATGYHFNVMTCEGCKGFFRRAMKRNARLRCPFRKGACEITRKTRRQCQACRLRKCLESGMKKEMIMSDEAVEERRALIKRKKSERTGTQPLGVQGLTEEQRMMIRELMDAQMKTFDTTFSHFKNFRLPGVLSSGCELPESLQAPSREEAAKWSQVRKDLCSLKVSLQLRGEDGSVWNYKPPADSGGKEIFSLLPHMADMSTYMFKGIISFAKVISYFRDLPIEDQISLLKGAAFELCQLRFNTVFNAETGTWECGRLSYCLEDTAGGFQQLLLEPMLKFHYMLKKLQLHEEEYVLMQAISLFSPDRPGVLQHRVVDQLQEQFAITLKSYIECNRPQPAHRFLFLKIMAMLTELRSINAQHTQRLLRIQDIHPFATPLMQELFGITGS

hPXR [2] = molecular target: T1, hPXR; assay: cell-based
CYP3A4 mRNA expression [3] = assay: CYP3A4 mRNA induction in HepaRG cells; details: 24 h treatment, Fig. 2A; for CYP3A4 mRNA induction (result in words): compared with vehicle or RIF 10 μM
CYP3A4 mRNA expression [4] = test system: CYP3A4 mRNA expression
CYP3A4 mRNA expression [5] = assay: CYP3A4 mRNA induction in HepaRG-PXR-KO cells versus HepaRG cells; type: cell-based, human; details: HepaRG-PXR-KO vs HepaRG, 24 h, Fig. 5A
CYP2B6 mRNA expression = assay: CYP2B6 mRNA induction in HepaRG-PXR-KO cells versus HepaRG cells; type: cell-based, human; details: HepaRG-PXR-KO vs HepaRG, 24 h, Fig. 5B
[6] = qHTS primary screen, hPXR-Luc HepG2, 24 h, relative to positive control RIF
[7] = PXR Primary EC50, qHTS primary screen, hPXR-Luc HepG2, 24 h

Row | Compound | PXR Primary Efficacy (hPXR [1]) | PXR Follow-up Efficacy (hPXR [1]) | PXR Primary Efficacy (hPXR [1]; [6]) [%] | EC50 (hPXR [2]) [µM] | EC50 (hPXR [2]; [7]) [µM] | also measured
1 | O=C(CCCCCCC(=O)Nc1ccccc1)NO [Vorinostat (SAHA), Vorinostat] | 7.8 ± 3.8 [182 ± 46.9] % |  |  |  |  | 
2 | N=C(Nc1ccccc1)Nc1ccccc1 [1,3-Diphenylguanidine] | 8.0 ± 13.7 [461 ± 143] % | 2.7 ± 0.3 [393 ± 128] % |  |  |  | EC50 (hPXR [2]; PXR Primary EC50): 8 µM; EC50 (hPXR [2]; […]): 2.7 µM
3 | CCOC(=O)C1=C(C)NC(C)=C(C(=O)OCC)C1c1ccccc1/C=C/C(=O)OC(C)(C)C [Lacidipine] | 5.6 ± 5.5 [155 ± 70.5] % | 10.4 ± 4.4 [115 ± 15.0] % |  |  |  | CYP3A4 mRNA induction (result in words) (CYP3A4 mRNA expression [3]): greater extent than the positive control
4 | CCOc1cc(N)c(Cl)cc1C(=O)NCC1CN(Cc2ccc(F)cc2)CCO1 (stereo not drawn) [Mosapride citrate] |  |  | 222 ± 59.5 | 10.8 ± 1.2 | 8.8 ± 3.3 | 
5 | Cc1nc(Nc2ncc(C(=O)Nc3c(C)cccc3Cl)s2)cc(N2CCN(CCO)CC2)n1 [Dasatinib] | 0.3 ± 0.5 [84.6 ± 22.2] % | 0.6 ± 0.07 [127 ± 12.0] % |  |  |  | 
6 | O[C@@H](COc1cccc2ncccc12)CN1CCN([C@@H]2c3ccccc3[C@@H]3[C@H](c4ccccc42)C3(F)F)CC1 [Zosuquidar trihydrochloride] |  |  | 188 ± 41.7 | 1.6 ± 0.3 | 3.2 ± 1.7 | 
7 | CCCN(CCC)c1c([N+](=O)[O-])cc(C(F)(F)F)c(N)c1[N+](=O)[O-] [Prodiamine] | 4.7 ± 0.8 [168 ± 31.0] % | 8.5 ± 0.9 [108 ± 6.61] % |  |  |  | EC50 (hPXR [2]; PXR Primary EC50): 4.7 µM; EC50 (hPXR [2]; […]): 8.5 µM
8 | O=C(CCCN1CCC2(CC1)C(=O)NCN2c1ccccc1)c1ccc(F)cc1 [Spiperone] | 3.7 ± 0.4 [341 ± 31.7] % | 6.2 ± 3.3 [345 ± 225] % |  |  |  | CYP3A4 mRNA induction (fold increase) (CYP3A4 mRNA expression [3]): > 5 fold; CYP3A4 mRNA induction (result in words) (CYP3A4 mRNA expression [3]): not statistically significant
9 | CCCCOCN(C(=O)CCl)c1c(CC)cccc1CC [Butachlor] | 119 ± 49.2% | 107 ± 26.0% |  | 6.49 ± 2.9 | 4 ± 4 | CYP3A4 mRNA induction (fold increase) (CYP3A4 mRNA expression [4]; human): > 5 fold
10 | Nc1nc(Cl)nc2c1ncn2[C@@H]1O[C@H](CO)[C@@H](O)[C@@H]1F [Clofarabine] | 0.7 ± 0.2 [112 ± 34.6] % | 3.3 ± 0.4 [214 ± 13.9] % |  |  |  | 
11 | Cc1cccc(N(C)C(=S)Oc2ccc3c(c2)CCC3)c1 [Tolindate] |  |  | 201 ± 37.5 | 8.7 ± 1.5 | 8.3 ± 2.3 | 
12 | CC(C)C[C@H](NC(=O)[C@H](Cc1ccccc1)NC(=O)c1cnccn1)B(O)O [Bortezomib] | 0.008 ± 0.0005 [97.7 ± 17.9] % | 0.02 ± 0.004 [83.8 ± 12.8] % |  |  |  | 
13 | CC(C)C[C@H](NC(=O)[C@H](CCc1ccccc1)NC(=O)CN1CCOCC1)C(=O)N[C@@H](Cc1ccccc1)C(=O)N[C@@H](CC(C)C)C(=O)[C@@]1(C)CO1 [Carfilzomib] |  |  | 110 ± 10.3 | 0.1 ± 0.02 | 0.04 ± 0.024 | 
14 | Cc1oc2c(NC(=O)c3c(Cl)cccc3Cl)cccc2c1C(C)(C)O [FR167356] |  |  | 178 ± 9.77 |  |  | EC50 (hPXR [1]): 7.1 ± 1.2 µM; EC50 (hPXR [1]; read-out: PXR Primary EC50, qHTS primary screen, hPXR-Luc HepG2, 24 h): 3 ± 2.2 µM
15 | Clc1ccc(-c2nc3sccn3c2C=NOCc2ccc(Cl)c(Cl)c2)cc1 [CITCO, 6-(4-Chlorophenyl)imidazo[2,1–b][1, 3]thiazole-5-carbaldehyde O-(3,4-dichlorobenzyl)oxime] |  |  |  |  |  | Change of CYP3A4 mRNA induction in PXR-KO cells (CYP3A4 mRNA expression [5]): lack a significant decrease; Change of CYP2B6 mRNA expression in PXR-KO cells (CYP2B6 mRNA expression): significantly decreased
16 | COc1cccc(N(C)C(=S)Oc2ccc3c(c2)CCCC3)n1 [Liranaftate] | 5.5 ± 2.6 [148 ± 42.6] % | 4.5 ± 0.7 [144 ± 16.0] % |  |  |  | CYP3A4 mRNA induction (result in words) (CYP3A4 mRNA expression [4]): greater extent than the positive control
17 | CCN1C(=O)c2ccccc2C1Nc1ccc(OCCN2CCCCC2)cc1 (stereo not drawn) [Etomidoline] |  |  | 175 ± 74.6 | 3.2 ± 0.4 | 2.6 ± 1.3 | CYP3A4 mRNA induction (result in words) (CYP3A4 mRNA expression [3]): greater extent than the positive control
18 | COC(=O)C1=C(C)NC(C)=C(C(=O)OC2CCCN(Cc3ccccc3)C2)C1c1cccc([N+](=O)[O-])c1 (racemic) [rac Benidipine hydrochloride] | 5.6 ± 5.4 [141 ± 33.3] % | 4.6 ± 2.3 [105 ± 14.7] % |  |  |  | 
19 | CC[C@H]1CN2CCc3cc(OC)c(OC)cc3[C@@H]2C[C@@H]1C[C@H]1NCCc2cc(OC)c(OC)cc21 [Emetine] | 0.05 ± 0.04 [211 ± 74.0] % | 0.1 ± 0.01 [119 ± 8.89] % |  |  |  | 
20 | COC(=O)c1c(C(F)F)nc(C(F)(F)F)c(C2=NCCS2)c1CC(C)C [Thiazopyr] | 1.2 ± 1.0 [108 ± 37.9] % | 4.6 ± 0.3 [102 ± 8.66] % |  |  |  | EC50 (hPXR [2]; PXR Primary EC50): 1.2 µM; EC50 (hPXR [2]; […]): 4.6 µM; CYP3A4 mRNA induction (result in words) (CYP3A4 mRNA expression [4]): greater extent than the positive control
